Experimental data: patent US10793520B2, “Sulfonylaminobenzamide compound and pest control agent” (Nippon Soda Co., Ltd., priority 2016, dated 2020)

Columns and labels:
Dirofilaria immitis = test: Efficacy test against Dirofilaria immitis (in vitro, Mf and L4); conditions: 10 μM, 72 hours, 37° C.
Source text: Using the microfilarial stage and the fourth stage larvae (Mf and L4 respectively) of Dirofilaria immitis, the bioactivity of compounds of the present invention were investigated in vitro. The Mf was collected from the blood of infected dogs, and 500 microfilariae were inoculated into each well of a 96-well microtiter plate. The L4 larvae was obtained by allowing L3 larvae collected from infected mosquitoes to undergo a single molt, and 10 of these L4 larvae were inoculated into each well. Subsequently, a 10 mM DMSO solution of the compound of the present invention was prepared at various concentrations and added to each well in a ratio of 1/1,000, and a test was then conducted at a final concentration of 10 μM. Incubation was performed at 37° C. in an environment containing 5% carbon dioxide, and 72 hours after treatment with the compound, the mortality and growth inhibition were determined. The test was repeated.

Mythimna separata = test: Efficacy test against Mythimna separata (treated artificial feed); conditions: in vivo
Method: (§1) Five parts of the compound of the present invention, 93.6 parts of dimethylformamide and 1.4 parts of a polyoxyethylene alkyl aryl ether were mixed together and dissolved to obtain an emulsion (1) containing 5% of the active constituent.
The mortality rate was calculated using the following equation. Mortality rate (%)=(number of dead pests/number of test pests)×100
First, 0.8 g of an artificial feed (Insecta LFS, manufactured by Nosan Corporation) and 1 μl of the emulsion (I) were mixed thoroughly, and 0.2 g of the resulting mixture was placed in each of the treatment areas of a plastic test container (volume: 1.4 ml) to complete preparation of a test feed.
Two second-instar larvae of Mythimna separata were inoculated into each treatment area, and the test container was sealed with a plastic lid. The sealed container was placed in a temperature-controlled room at 25° C., and the mortality rate and the amount of feed consumed were determined on the fifth day. The test was repeated. Further, a test performed under the same conditions, but with the exception of excluding the compound of the present invention from the emulsion (1), was used as a control.

Meloidogyne incognita = test: Efficacy test against Meloidogyne incognita (clubroot formation suppression test on cucumber); type: in vivo; conditions: 125 ppm, 1 ml irrigated on culture medium with cucumber seeds; 200 eggs; after 14 days; relative to untreated sample
Method: as §1
The emulsion (I) was diluted with water to achieve a concentration of the compound of the present invention of 125 ppm. A plastic container with a diameter of 5 cm was filled with 7 g of a culture medium, and cucumber seeds were planted. The culture medium was irrigated with 1 ml of the above dilute liquid, and then inoculated with 200 eggs of Meloidogyne incognita. The container was then placed in a temperature-controlled room at a temperature of 25° C. and a humidity of 60%, and after 14 days, the clubroot formation suppression ratio (%) relative to an untreated sample was calculated from the number of clubroots formed on the roots of the cucumber plants. The test was repeated. Clubroot formation suppression ratio (%)=(1−Nt/Nc)×100
Nt: Total number of club roots formed in two treated samples after 14 days
Nc: Total number of club roots formed in two untreated samples after 14 days

Structure (SMILES)	mortality rate against Mythimna separata, or amount of feed consumed relative to control (Mythimna separata)	further results
O=C(Nc1ccc(C(F)(F)F)cc1)c1ccc(OC(F)(F)F)cc1NS(=O)(=O)C(F)(F)F [a-26]	100%, or the amount of feed consumed was 10% or less	mortality rate or growth inhibition rate (Dirofilaria immitis; fourth stage larvae (L4)): at least 90%; mortality rate or growth inhibition rate (Dirofilaria immitis; microfilarial stage (Mf)): at least 90%
COC(=O)c1cc(Cl)c(Cl)cc1NC(=O)c1ccc(C(F)(F)F)cc1NS(=O)(=O)C(F)(F)F [a-80]	100%, or the amount of feed consumed was 10% or less	clubroot formation suppression ratio against Meloidogyne incognita (Meloidogyne incognita): ≥ 80%
COC(=O)c1cc(C(F)(F)F)ccc1NC(=O)c1cc(Br)c(Cl)cc1NS(=O)(=O)C(F)(F)F [a-112]	100%, or the amount of feed consumed was 10% or less	
COC(=O)c1cc([N+](=O)[O-])ccc1NC(=O)c1cc(F)c(F)cc1NS(=O)(=O)C(F)(F)F [a-113]	100%, or the amount of feed consumed was 10% or less	
CON=Cc1cc(Cl)ccc1NC(=O)c1ccc(C(F)(F)F)cc1NS(=O)(=O)C(F)(F)F [a-115]	100%, or the amount of feed consumed was 10% or less	
O=C(Nc1cc(F)c(F)cc1F)c1ccc(C(F)(F)F)cc1NS(=O)(=O)C(F)(F)F [a-116]	100%, or the amount of feed consumed was 10% or less	
O=C(Nc1ccc(C(F)(F)F)cc1)c1ccc(-c2ccc(C(F)(F)F)nc2)cc1NS(=O)(=O)C(F)(F)F [a-118]	100%, or the amount of feed consumed was 10% or less	
O=C(Nc1ccc(C(F)(F)F)c(F)c1)c1ccc(-c2ccc(C(F)(F)F)nc2)cc1NS(=O)(=O)C(F)(F)F [a-119]	100%, or the amount of feed consumed was 10% or less	
O=C(Nc1ccc(F)c(C(F)(F)F)c1)c1ccc(-c2ccc(C(F)(F)F)nc2)cc1NS(=O)(=O)C(F)(F)F [a-120]	100%, or the amount of feed consumed was 10% or less	
O=C(Nc1ccc([N+](=O)[O-])cc1)c1ccc(-c2ccc(C(F)(F)F)nc2)cc1NS(=O)(=O)C(F)(F)F [a-121]	100%, or the amount of feed consumed was 10% or less	
O=C(Nc1ccc(C(F)(F)F)cc1)c1cc(C(F)(F)F)c(F)cc1NS(=O)(=O)C(F)(F)F [a-122]	100%, or the amount of feed consumed was 10% or less	
O=C(Nc1ccc(C(F)(F)F)cc1)c1cc(F)c(C(F)(F)F)cc1NS(=O)(=O)C(F)(F)F [a-123]	100%, or the amount of feed consumed was 10% or less	
O=C(Nc1ccc(C(F)(F)F)cc1)c1cc(Br)c(Cl)cc1NS(=O)(=O)C(F)(F)F [a-124]	100%, or the amount of feed consumed was 10% or less	
COC(=O)c1c(NC(=O)c2ccc(C(F)(F)F)cc2NS(=O)(=O)C(F)(F)F)ccc(Br)c1F [a-126]	100%, or the amount of feed consumed was 10% or less	
O=C(Nc1ccc(C(F)(F)F)cc1)c1cc(F)c(F)cc1NS(=O)(=O)C(F)(F)F [a-127]	100%, or the amount of feed consumed was 10% or less	
O=C(Nc1ccc(C(F)(F)F)cc1)c1cc(Cl)c(Cl)cc1NS(=O)(=O)C(F)(F)F [a-128]	100%, or the amount of feed consumed was 10% or less	
O=C(Nc1ccc(C(F)(F)F)cc1)c1cc(Cl)c(F)cc1NS(=O)(=O)C(F)(F)F [a-129]	100%, or the amount of feed consumed was 10% or less	
COC(=O)c1ccc(C(F)(F)F)cc1NC(=O)c1cc(Br)c(Cl)cc1NS(=O)(=O)C(F)(F)F [a-131]	100%, or the amount of feed consumed was 10% or less	
COC(=O)c1cc(F)c(F)cc1NC(=O)c1cc(Cl)c(Br)cc1NS(=O)(=O)C(F)(F)F [a-132]	100%, or the amount of feed consumed was 10% or less	
CC(=O)c1ccc(C(F)(F)F)cc1NC(=O)c1ccc(C(F)(F)F)cc1NS(=O)(=O)C(F)(F)F [a-134]	100%, or the amount of feed consumed was 10% or less	
O=C(Nc1ccc(C(F)(F)F)cc1-n1cccn1)c1ccc(C(F)(F)F)cc1NS(=O)(=O)C(F)(F)F [a-135]	100%, or the amount of feed consumed was 10% or less	
COC(=O)c1ccc(C(F)(F)F)cc1NC(=O)c1cc(Cl)c(F)cc1NS(=O)(=O)C(F)(F)F [a-137]	100%, or the amount of feed consumed was 10% or less	
O=C(Nc1ccc(F)c(F)c1)c1ccc(C(F)(F)F)cc1NS(=O)(=O)C(F)(F)F [a-138]	100%, or the amount of feed consumed was 10% or less	
O=C(Nc1cc(C(F)(F)F)ccc1-c1nnco1)c1ccc(C(F)(F)F)cc1NS(=O)(=O)C(F)(F)F [a-139]	100%, or the amount of feed consumed was 10% or less	
O=C(Nc1ccc(F)c(C(F)(F)F)c1)c1ccc(Cl)cc1NS(=O)(=O)C(F)(F)C(F)(F)C(F)(F)C(F)(F)F [a-141]	100%, or the amount of feed consumed was 10% or less	
O=C(Nc1ccc(F)c(F)c1)c1cc(Br)c(Cl)cc1NS(=O)(=O)C(F)(F)F [a-143]	100%, or the amount of feed consumed was 10% or less	
O=C(NCc1ccc(Cl)cc1)c1ccc(C(F)(F)F)cc1NS(=O)(=O)C(F)(F)F [b-1]	100%, or the amount of feed consumed was 10% or less	
CC(C)(NC(=O)c1ccc(C(F)(F)F)cc1NS(=O)(=O)C(F)(F)F)c1ccc(Cl)cc1 [b-2]	100%, or the amount of feed consumed was 10% or less	
CC(NC(=O)c1ccc(C(F)(F)F)cc1NS(=O)(=O)C(F)(F)F)c1ncc(C(F)(F)F)cc1Cl (stereo not drawn) [b-4]	100%, or the amount of feed consumed was 10% or less	
CCC(NC(=O)c1ccc(C(F)(F)F)cc1NS(=O)(=O)C(F)(F)F)c1ccc(C(F)(F)F)cn1 (stereo not drawn) [b-6]	100%, or the amount of feed consumed was 10% or less	
